Our source for the Log-ratio values is patent US8580511B2, “Two-color fluorescent reporter for alternative pre-mRNA splicing” (The Regents of the University of California, priority 2006, dated 2013).

In the first assay the test system is exon 10 of the human tau gene. The assay is described as follows: High-throughput small molecule screen with two-color fluorescent (GFP/RFP) splicing reporter in stable cell line. It counts as cell-based.
Conditions: not given
The source says:
Exon 10 of the human tau gene (SEQ ID NO:9; see also, GenBank Accession No. AF027494) containing short stretches (about 50-100 nucleotides) of each of the flanking introns (i.e., intronic sequences from introns 9 and 10; see, e.g., Wang et al., J. Neurochem., 88:1078-1090 (2004)) was cloned into the EcoRI and BamHI restriction sites of the reporter intron (SEQ ID NO:2), which interrupts the start codon of the GFP open reading frame. The clone was linearized using DraIII and transfected into adherent mammalian cells.
In particular, the background was calculated by measuring the fluorescence of each channel after excitation with shorter wavelengths than the optimal for the reporter proteins. This measurement was corrected using data from non-reporter cells before being subtracted from the reporter-expressing cells as background. The following formulas describe the background subtraction procedure: […]
The two-color fluorescent reporter constructs described above carrying exon 10 of the human tau gene were used in high-throughput small molecule screens of a library of enzyme inhibitors (FIG. 6A) and a library of FDA approved drugs (FIG. 6B). The stable cell line was plated at density of 5000 cells per well in 384-well plates. HEK 293 cells to be used as the non-fluorescent control for background subtraction were plated in separate plates at the same density. Each library was applied to the plates and the cells were incubated for 16 hours. The media was removed and the cells were lysed in RIPA buffer (1% Nonidet P-40, 1% sodium deoxycholate, 0.1% SDS, 150 mM NaCl, 10 mM sodium phosphate (pH 7.2), 2 mM EDTA, 50 mM NaF, 5 mM beta-glycerophosphate). The fluorescence intensities were measured using an Analyst AD plate reader. The background was subtracted as described above and the logarithm at base 2 was calculated for the ratio of RFP to GFP fluorescence intensities (log-ratio) and the product of the GFP and RFP fluorescence intensities (log-expression) for each data point. The log-ratios were normalized by Lowess regression using the log-expression as an independent variable.
On to `N#CC(=C(/N)Sc1ccccc1N)/C(C#N)=C(\N)Sc1ccccc1N` [Compound U-0126], for which the Log-ratio stood at 0.44. `CN(C)C(=O)C(CCN1CCC(O)(c2ccc(Cl)cc2)CC1)(c1ccccc1)c1ccccc1` [LOPERAMIDE]: the Log-ratio was determined as 0.72.

Staying with this assay, now noted: log2 of RFP/GFP fluorescence, background subtracted, Lowess normalized; enzyme inhibitor library; 16 hours incubation; DMSO control −0.21.
Regarding `CCCCCCCCCCCCCCCC(=O)OC(CC(=O)O)C[N+](C)(C)C.[Cl-]` (racemic) [PALMITOYL-DL-CARNITINE CI], the Log-ratio is listed as 0.61. Still for that read-out and setting: the same measure for `Nc1ncnc2c1c(I)cn2[C@@H]1O[C@H](CO)[C@@H](O)[C@H]1O` [5-IODOTUBERCIDIN]: −1.03; for `CC(C)(C)c1cc(/C=C(\C#N)C(N)=S)cc(C(C)(C)C)c1O` [AG-879]: 1.59; for `CN(CCc1ccc(Cl)c(Cl)c1)CC(O)COc1ccc(NS(C)(=O)=O)cc1` (stereo not drawn) [AM 92016]: 0.44. Still for that read-out and setting: the same measure for `CCCCc1oc2ccccc2c1C(=O)c1cc(I)c(OCCN(CC)CC)c(I)c1` [AMIODARONE]: 0.63. Same read-out and setting: the same measure for `CCCCC/C=C\C/C=C\C/C=C\C/C=C\CCCC(=O)N[C@@H](C)C(=O)O` [Arachidonoyl alanine]: 0.38; for `CC(C)COCC(CN(Cc1ccccc1)c1ccccc1)N1CCCC1` (stereo not drawn) [BEPRIDIL]: 0.74. Consider `CC1(C(=O)O)C2CCC(O2)C1(C)C(=O)O` (stereo not drawn) [CANTHARIDIC ACID], for which the Log-ratio is −1.72. In the case of `NCCNS(=O)(=O)c1cccc2cnccc12` [Compound H-9], the Log-ratio is 0.61. With `N/C(=N\C(=O)c1nc(Cl)c(N)nc1N)NCc1ccc(Cl)c(Cl)c1` [DICHLOROBENZAMIL], the Log-ratio was 1.75. Still for that read-out and setting: as for `CCCCC/C=C\C/C=C\C/C=C\CCCCCCC(=O)NCC(=O)O` [Dihomo-gamma-linolenoyl glycine], the figure is 0.49. For the compound `Cc1cc(O)c2c(=O)c3c(O)cc(O)c4c5c(O)cc(O)c6c(=O)c7c(O)cc(C)c8c1c2c(c34)c(c78)c65` [HYPERICIN], the Log-ratio turned out to be 1.14. On the same count and under the same terms, as for `COc1ccc(S(=O)(=O)N(CCO)c2ccccc2CN(C)C/C=C/c2ccc(Cl)cc2)cc1` [KN-93], the figure is 0.75; as for `O=c1cc(N2CCOCC2)oc2c(-c3ccccc3)cccc12` [LY 294002], 0.85. With `O=S(=O)(c1cccc2c(I)cccc12)N1CCCNCC1` [ML-7], the Log-ratio is 0.72. On the same count and under the same terms, the same measure for `O=S(=O)(c1cccc2c(Cl)cccc12)N1CCCNCC1` [ML-9]: 0.52. On the same count and under the same terms, the same measure for `COC(=O)C1=C(C)NC(C)=C(C(=O)OCCN(C)Cc2ccccc2)C1c1cccc([N+](=O)[O-])c1` (stereo not drawn) [NICARDIPINE]: 0.68; for `C=C(C)[C@H]1O[C@H]2CC[C@@]3(C)[C@@](O)(CC[C@H]4[C@@H]5OC(C)(C)[C@H]6C[C@@H]7C(=C)Cc8c(Cl)cc9[nH]c(c5c9c8[C@@]76O)[C@@]43C)[C@@]23O[C@H]3[C@H]1O` [PENITREM A]: 0.56; for `O=c1[nH]c2ccccc2n1C1CCN(CCCC(c2ccc(F)cc2)c2ccc(F)cc2)CC1` [PIMOZIDE]: 0.69. With `C=C[C@H]1C[N@@]2CC[C@H]1C[C@H]2[C@H](O)c1ccnc2ccc(OC)cc12` [QUININE], the Log-ratio amounted to 0.43. On the same count and under the same terms, the same measure for `CC(=O)c1c(O)c(C)c(O)c(Cc2c(O)c3c(c(C(=O)/C=C/c4ccccc4)c2O)OC(C)(C)C=C3)c1O` [ROTTLERIN]: 1.27. Regarding `Oc1ccc(-c2nc(-c3ccncc3)c(-c3ccc(F)cc3)[nH]2)cc1` [SB-202190], the Log-ratio is reported as 0.46. The same measure, in the same setting: as for `CC(C)(C)c1cc(C=C(C#N)C#N)cc(C(C)(C)C)c1O` [TYRPHOSTIN 9], the figure is 1.69. Consider `N#C/C(=C\c1ccc(O)c(O)c1)C(N)=S` [TYRPHOSTIN 47], for which the Log-ratio was 0.48. On to `COC[C@H]1OC(=O)c2coc3c2[C@@]1(C)C1=C(C3=O)[C@@H]2CCC(=O)[C@@]2(C)C[C@H]1OC(C)=O` [WORTMANNIN], for which the Log-ratio is 1.37.
